Experimental findings from patent publication US8629110B2, “Kv1.3 channel blocking substances for the treatment of diseases associated with intimal hyperplasia” (priority 2008, dated 2014) are described below.

One series addresses Kv1.3 channel (Homo sapiens, UniProt P22001). The series can be described thus: Whole-cell patch-clamp in HEK cell transfected with the Kv1.3 channel. It is filed as cell-based. As to conditions: 10 nM; potentials from +10 up to +80 mV; HEK cell transfected with Kv1.3. From the text: FIG. 3. Example of the assay for determining if a substance is a Kv1.3 channel blocker. […] The amplitude of the maximum current evoked by each voltage pulse is depicted in panel B depending on the value of the membrane potential, with which the current (I) voltage (V) curve is constructed for the three situations.
To evaluate if a substance is capable of dose-dependently reducing the flow of current through Kv1.3 (i.e., if it is a Kv1.3 blocker). The currents through the Kv1.3 channels expressed in the heterologous system were studied by means of the patch-clamp technique in the whole-cell configuration. The currents were recorded at room temperature (21-25° C.). The cells, placed in a recording chamber located in an inverted microscope, were perfused with a physiological saline solution (in mM: 141 NaCl, 4.7 KCl, 1.2 MgCl2, 1.8 CaCl2, 10 glucose and 10 HEPES (pH 7.4 with NaOH). The recording pipettes were made from borosilicate glass (2.0 mm OD, WPI) with a pipette puller (Narishige PP-83) so that they have resistances between 2 and 5 MΩ upon filling them with an internal solution containing (in mM) 125 KCl, 4 MgCl2, 10 HEPES, 10 EGTA, 5 MgATP; (pH 7.2 with KOH). The whole-cell currents were recorded with an Axopatch 200 amplifier or the like, filtering at 2 kHz and sampling at 10 kHz. […]
A general note: Patch clamp records ionic current or voltage across a cell membrane.

Series [1] concerns VSMCs of the human uterine artery. The series can be described thus: Proliferation of VSMCs in culture (BrdU incorporation). Format: cell-based. As to conditions: 10 nM; 24 hours; medium with 5% serum. How it is done:
FIG. 8. Effect of the Kv1.3 channel blockers on the proliferation of the VSMCs of the human uterine artery. […] Again, these experiments were conducted in cells in control medium and cells in which the margatoxin or PAP was added to the medium.
For the proliferation studies, the fraction of cells incorporating 5-bromo-2′-deoxyuridine (BrdU) was determined. BrdU is a thymidine analog which can be incorporated in its place for the synthesis phase of the cell cycle. The cells incorporating BrdU can be detected by means of observation under a fluorescence microscope upon using a monoclonal antibody against this molecule and a secondary antibody conjugated with a fluorochrome. The assay was performed with a commercial kit (5-Bromo-2′-deoxy-uridine labeling and Detection Kit I; Roche Applied Science, Germany). The human uterine artery smooth muscle cells were grown for 48 hours in glass coverslips 12 mm in diameter in DMEM medium supplemented with serum and antibiotics as has been previously described, until reaching a confluence close to 50%. […] To quantify the results, the number of cells positive for BrdU with respect to the total number of cells in the field (which is determined by labeling the nuclei with the DAPI fluorescent dye) is counted in 10-20 fields in each experiment.
(In general: Dividing cells build labelled thymidine or BrdU into new DNA.)

Series [2] in a line: Swine stent model: pharmacokinetics (blood and arterial tissue levels). Format: in vivo, pigs. The protocol: (§1) The total weight of the polymer with the drug is about 500 μg and the drug:polymer ratio is 30%. The stents are packed individually, coded with a bar code (to do a double blind experiment) and sterilized with ethylene oxide.
(§2) 36 stents (12 with the polymer alone, 12 with PAP and 12 with ShK) are implanted in 12 young pigs (25-35 kg) in the anterior descending or circumflex branches of the left coronary artery or in the right coronary artery (at a proportion of 3 stents per animal). The animals recover from the operation and are sent back to the animal house where they receive a normal diet supplemented with aspirin (325 mg/d). Blood samples of the animals are obtained at 6, 12, 24, 48 and 96 hours to determine the plasma levels of PAP and ShK. At 7 (n=4) or 28 days (n=8) the animals are euthanized after performing a coronary arteriography for the quantitative analysis. In one animal of each group (7 and 28 days), after euthanasia the coronary arteries are dissected, the stent is removed and the samples are frozen in liquid nitrogen in order to determine different markers by means of Western blot of the tissues and to determine the levels of PAP and ShK in the arterial wall. In the rest of the animals, immediately after euthanasia the hearts are collected and the coronary arteries are fixed by perfusion of formalin at 10% for 30 minutes.

Series [3] has as its system Swine animal model of restenosis (coronary artery intima). The series can be described thus: Swine animal model for the treatment of restenosis: morphometric analysis of stented coronary arteries. It is filed as in vivo, pigs. How it is done: as §1, §2
A morphometric analysis is performed measuring the degree of endothelialization of the stent area, the content of VSMCs in the intima and its thickness in relation to the thickness of the vessel and the lumen area (see FIG. 9).

Each structure is given as a SMILES string.

Chain of Kv1.3 channel (P22001 whole entry): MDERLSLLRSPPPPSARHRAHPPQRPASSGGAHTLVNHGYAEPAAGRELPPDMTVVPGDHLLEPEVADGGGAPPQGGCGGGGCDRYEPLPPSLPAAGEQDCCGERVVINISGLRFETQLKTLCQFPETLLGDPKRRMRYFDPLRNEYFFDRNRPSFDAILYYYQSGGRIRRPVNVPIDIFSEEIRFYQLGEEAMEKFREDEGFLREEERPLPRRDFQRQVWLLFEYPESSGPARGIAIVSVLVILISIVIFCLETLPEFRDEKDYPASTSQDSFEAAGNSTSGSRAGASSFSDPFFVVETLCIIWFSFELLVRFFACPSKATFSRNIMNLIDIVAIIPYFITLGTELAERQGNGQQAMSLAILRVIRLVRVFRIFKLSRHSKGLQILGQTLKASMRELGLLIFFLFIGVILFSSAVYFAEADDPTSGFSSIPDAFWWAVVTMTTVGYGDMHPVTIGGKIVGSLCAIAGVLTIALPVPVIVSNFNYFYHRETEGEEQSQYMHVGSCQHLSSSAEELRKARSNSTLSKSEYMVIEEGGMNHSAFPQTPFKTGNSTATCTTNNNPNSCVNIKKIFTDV

Consider `O=c1ccc2c(OCCCCOc3ccccc3)c3ccoc3cc2o1` [PAP-1], for which, on Kv1.3 channel, the “reduction of the current” value is reported as 80-85%. In addition, the “fraction of cells labeled with BrdU (proliferation)” value in series [1] is “a lower number of labeled nuclei is observed”. The “blood levels, maximal” value in series [2] (6 hours after implanting the stent, stent with 200 μg drug) is given as “about 3 ng/ml”. Further, the results for the “content in the arterial tissue” value in series [2] (at 7 days) and in series [2] (at 28 days) were 97 ng/artery and 30 ng/artery, respectively. For the same molecule, the “number of VSMCs in the intima” value in series [3] (drug-coated stent versus control stent) is “significantly decreased”. Further, the intimal area in series [3] (drug-coated stent, 5.07 mm^2 in control) worked out at 2.23 mm^2. Besides, in series [3] (drug-coated stent, 45% in control), the degree of stenosis is recorded as 27%.
